The numbers were not newly measured in patent US20210259278A1, “CHEWING GUM CONTAINING VITAMIN C” (priority 2018, published 2021), which cites them from elsewhere.

Structures are written as SMILES.

The data set concerns nausea in humans.

In the case of `O=C1O[C@H]([C@@H](O)CO)C(O)=C1O` [vitamin C, L-(+)-ascorbic acid], for the setting “administration of vitamin C, for example in connection with seasickness”, the treatment of nausea entry was “found to be effective”. In addition, the “prevention of the occurrence of nausea in all test subjects” value (vitamin C alone) was “could not reliably prevent the occurrence of nausea in all test subjects”.
